Laboratory results: paper PMC6268188, “Comparative Studies of the (Anti) Mutagenicity of Baccharis dracunculifolia and Artepillin C by the Bacterial Reverse Mutation Test” (Molecules, 2012)
Like-named read-outs stand apart in the source and are kept apart here.

Assays:
S. typhimurium TA98 = assay: Antimutagenicity assay (Ames test with known mutagens), strain TA98; assay type: cell-based, Salmonella typhimurium
[1] = 0.69 µg/plate + B[a]P 1.0 μg/plate, TA 98, + S9
[2] = 0.69 µg/plate + NOPD 10.0 μg/plate, TA 98, − S9
[3] = 1.37 µg/plate + B[a]P 1.0 μg/plate, TA 98, + S9
[4] = 1.37 µg/plate + NOPD 10.0 μg/plate, TA 98, − S9
[5] = 2.75 µg/plate + B[a]P 1.0 μg/plate, TA 98, + S9
[6] = 2.75 µg/plate + NOPD 10.0 μg/plate, TA 98, − S9
[7] = 5.49 µg/plate + B[a]P 1.0 μg/plate, TA 98, + S9
[8] = 5.49 µg/plate + NOPD 10.0 μg/plate, TA 98, − S9
[9] = […] + B[a]P 1.0 μg/plate, TA 98, + S9
[10] = […] + NOPD 10.0 μg/plate, TA 98, − S9

CC(C)=CCc1cc(/C=C/C(=O)O)cc(CC=C(C)C)c1O [ArtC, 3-{4-hydroxy-3,5-di(3-methyl-2-butenyl)phenyl}-2(E)-propenoic acid] was tested, and the “MI (mutagenicity index)” value (S. typhimurium TA100; 0.69 µg/plate, TA 100, + S9) was 1.0, the “Number of revertants (M ± SD)/ plate” value (S. typhimurium TA100; 0.69 µg/plate, TA 100, + S9) was 171 ± 1 revertants/plate and the “MI (mutagenicity index)” value (S. typhimurium TA100; 0.69 µg/plate, TA 100, − S9) was 1.2. The “Number of revertants (M ± SD)/ plate” value (S. typhimurium TA100; 0.69 µg/plate, TA 100, − S9) was 179 ± 4 revertants/plate, the “MI (mutagenicity index)” value (S. typhimurium TA100; 1.37 µg/plate, TA 100, + S9) was 1.0 and the “Number of revertants (M ± SD)/ plate” value (S. typhimurium TA100; 1.37 µg/plate, TA 100, + S9) was 171 ± 2 revertants/plate. For the same compound, the “MI (mutagenicity index)” value (S. typhimurium TA100; 1.37 µg/plate, TA 100, − S9) was 1.1, the “Number of revertants (M ± SD)/ plate” value (S. typhimurium TA100; 1.37 µg/plate, TA 100, − S9) was 174 ± 4 revertants/plate and the “MI (mutagenicity index)” value (S. typhimurium TA100; 2.75 µg/plate, TA 100, + S9) was 0.9. The “Number of revertants (M ± SD)/ plate” value (S. typhimurium TA100; 2.75 µg/plate, TA 100, + S9) was 144 ± 2 revertants/plate, the “MI (mutagenicity index)” value (S. typhimurium TA100; 2.75 µg/plate, TA 100, − S9) was 1.1 and the “Number of revertants (M ± SD)/ plate” value (S. typhimurium TA100; 2.75 µg/plate, TA 100, − S9) was 169 ± 6 revertants/plate. The “MI (mutagenicity index)” value (S. typhimurium TA100; 5.49 µg/plate, TA 100, + S9) was 0.9, the “Number of revertants (M ± SD)/ plate” value (S. typhimurium TA100; 5.49 µg/plate, TA 100, + S9) was 153 ± 2 revertants/plate and the “MI (mutagenicity index)” value (S. typhimurium TA100; 5.49 µg/plate, TA 100, − S9) was 1.0. The “Number of revertants (M ± SD)/ plate” value (S. typhimurium TA100; 5.49 µg/plate, TA 100, − S9) was 158 ± 7 revertants/plate, the “% inhibition” value (S. typhimurium TA98; [1]) was 38% and the antimutagenic effect class (S. typhimurium TA98; [1]) was “** (moderate effect (25% - 40% inhibition))”. The “% inhibition” value (S. typhimurium TA98; [2]) was 37%, the “Number of revertants (M ± SD)/ plate” value (S. typhimurium TA98; [2]) was 526 ± 12 revertants/plate and the antimutagenic effect class (S. typhimurium TA98; [2]) was “** (moderate effect (25% - 40% inhibition))”. The “% inhibition” value (S. typhimurium TA98; [3]) was 43%, the antimutagenic effect class (S. typhimurium TA98; [3]) was “*** (strong antimutagenic effect (> 40% inhibition))” and the “% inhibition” value (S. typhimurium TA98; [4]) was 38%. The “Number of revertants (M ± SD)/ plate” value (S. typhimurium TA98; [4]) was 520 ± 18 revertants/plate, the antimutagenic effect class (S. typhimurium TA98; [4]) was “** (moderate effect (25% - 40% inhibition))” and the “% inhibition” value (S. typhimurium TA98; [5]) was 56%. For the same compound, the antimutagenic effect class (S. typhimurium TA98; [5]) was “*** (strong antimutagenic effect (> 40% inhibition))”, the “% inhibition” value (S. typhimurium TA98; [6]) was 42% and the “Number of revertants (M ± SD)/ plate” value (S. typhimurium TA98; [6]) was 484 ± 31 revertants/plate. The antimutagenic effect class (S. typhimurium TA98; [6]) was “*** (strong antimutagenic effect (> 40% inhibition))”, the “% inhibition” value (S. typhimurium TA98; [7]) was 56% and the antimutagenic effect class (S. typhimurium TA98; [7]) was “*** (strong antimutagenic effect (> 40% inhibition))”. The “% inhibition” value (S. typhimurium TA98; [8]) was 37%, the “Number of revertants (M ± SD)/ plate” value (S. typhimurium TA98; [8]) was 532 ± 27 revertants/plate and the antimutagenic effect class (S. typhimurium TA98; [8]) was “** (moderate effect (25% - 40% inhibition))”. For the same compound, the “% inhibition” value (S. typhimurium TA98; [9]) was 62%, the antimutagenic effect class (S. typhimurium TA98; [9]) was “*** (strong antimutagenic effect (> 40% inhibition))” and the “% inhibition” value (S. typhimurium TA98; [10]) was 41%. For the same compound, the antimutagenic effect class (S. typhimurium TA98; [10]) was “*** (strong antimutagenic effect (> 40% inhibition))”.
